The values that follow come from patent EP0233461B2, “4,5,6-Substituted-2-pyrimidinamines” (AMERICAN CYANAMID COMPANY, priority 1986, dated 1987).

Where a name gives a salt, the structure may show the parent alone. Read-outs that look alike come from different tables or passages of the source.

This test concerns human basophils. Description: Inhibition of histamine release from immunologically stimulated human basophils. To be noted: concentration causing 50% inhibition of histamine release, by linear regression, active if IC50 ≦ 48 µM. The test is classed as cell-based. On the procedure: The blood is allowed to sediment at room temperature in two 50 ml polycarbonate centrifuge tubes until a sharp interface develops between the red cells and plasma (60-90 minutes). The plasma (top) layer from each tube is withdrawn by pipet and transferred to respective 50 ml polycarbonate tubes. The plasma is centrifuged for 8 minutes at 110X G at 4°C. The supernatant is carefully poured off as completely as possible and the cell button is resuspended in 2-3 ml of Tris-A buffer using a siliconized Pasteur pipet. The resuspension is accomplished by drawing the liquid gently in an out of the pipet, with the tip below the liquid until an even suspension of cells is obtained. Sufficient Tris-A buffer is then added to bring the volume in the tube to about 45 ml and the tube is centrifuged at 110X G for 8 minutes at 4°C. The supernatant is poured off and the cell button is resuspended and centrifuged as described above. The supernatant is poured off and the cell button is suspended in 2-3 ml of Tris-ACM buffer to make the final volume sufficient to allow addition to the reaction tubes. Reaction tubes containing anti-IgE or antigens, either alone or with test compound in a total volume of 0.2 ml are prepared and placed in a 37°C bath. The cells are warmed to 37°C and frequently swirled to ensure an even suspension, while 1.0 ml aliquots are added to each reaction tube. The tubes are then incubated for 60 minutes at 37°C, vortexing the tubes gently every 15 minutes to keep the cells evenly suspended. When the reaction is complete, the tubes are centrifuged at 4°C for 10 minutes at 1500 rpm to sediment the cells. […] Blanks and totals are included in each test. The blanks have cells and all reagents except antigen or anti-IgE. The totals contain 0.24 ml of 8% perchloric acid, one ml of cells and 0.2 ml of buffer. All samples are then centrifuged to remove the precipitate protein. […] The automated system consists of the following Technicon Autoanalyzer II components Sampler IV, Dual-Speed Proportioning Pump III, Fluoronephelometer with a narrow pass primary filter 7-60 and a secondary filter 3-74, Recorder, and Digital Printer. The manifold used is the one described by Siraganian vide supra, with the following modifications: the dialyzer is omitted; all pumping tubes pass through a single proportioning pump with large capacity and twice the volume of sample is taken for anaylsis. The automated chemistry consists of the following steps: Extraction from alkaline saline into butanol, back extraction into dilute hydrochloric acid by addition of heptane, reaction of histamine with o-phthaldialdehyde (OPT) at high pH and conversion of the OPT adduct to a stable fluorophore with phosphoric acid. The reaction product is then passed through the fluorometer. The full scale response is adjusted to 50 ng histamine base with a threshold sensitivity of approximately 0.5 ng. The instrument blank (wash) is substracted from the ng histamine of each sample. Then the ng histamine of each sample is divided by the mean of the three totals (cells lysed with perchloric acid) to obtain percent release. Control samples contain antigen but no test compound. Blank (or spontaneous release) samples contain neither antigen nor test compound. The mean of the blanks (three replicates) is subtracted from the percent release for controls and test compounds.

As a reminder, the IC50 is the concentration needed to halve the response being measured. As for `CCN(CC)CCOc1cccc(Nc2nccc(-c3ccncc3)n2)c1` [N-[3-[2-(Diethylamino)ethoxy]phenyl]-4-(4-pyridinyl)-2-pyrimidinamine], the IC50 (Homo sapiens, read-out: IC50) stood at 700 nM.

`CNc1ccc(Nc2nccc(-c3ccccn3)n2)cc1` [N-Methyl-N'-[4-(2-pyridinyl)-2-pyrimidinyl]-1,4-benzenediamine]: the IC50 (Homo sapiens, read-out: IC50) was determined as 1400 nM.

In the case of `Cc1cc(C)cc(Nc2nccc(-c3cc(C)oc3C)n2)c1` [4-(2,5-Dimethyl-3-furanyl)-N-(3,5-dimethylphenyl)-2-pyrimidinamine], the IC50 (Homo sapiens, read-out: IC50) amounted to 4100 nM.

Consider `CCN(CC)CCOc1ccc(Nc2nccc(-c3ccncc3)n2)cc1` [N-[4-[2-(Diethylamino)ethoxy]phenyl]-4-(4-pyridinyl)-2-pyrimidinamine], for which the IC50 (Homo sapiens, read-out: IC50) came out at 200 nM.

For `CC(C)(C)c1ccc(Nc2nccc(-c3cccs3)n2)cc1` [N-[4-(1,1-Dimethylethyl)phenyl]-4-(2-thienyl)-2-pyrimidinamine], under “Homo sapiens, read-out: IC50”, the IC50 worked out at 4600 nM.

With `NS(=O)(=O)c1ccc(Nc2nccc(-c3cccnc3)n2)cc1` [4-[[4-(3-pyridinyl)-2-pyrimidinyl]amino]benzenesulfonamide], the IC50 (Homo sapiens, read-out: IC50) was 200 nM.

Turning to `COc1ccc(Nc2nccc(-c3ccccn3)n2)cc1` [N-(4-Methoxyphenyl)-4-(2-pyridinyl)-2-pyrimidinamine], where the note is “Homo sapiens, read-out: IC50”, the IC50 was determined as 8300 nM.

Take `c1ccc2c(Nc3nccc(-c4ccncc4)n3)cccc2c1` [N-1-Naphthalenyl-4-(4-pyridinyl)-2-pyrimidinamine]: the IC50 (Homo sapiens, read-out: IC50) was found to be 31300 nM.

For the compound `c1ccc(Nc2nccc(-c3ccncc3)n2)cc1` [N-Phenyl-4-(4-pyridinyl)-2-pyrimidinamine, (Z)-2-butenedioat] [N-Phenyl-4-(4-pyridinyl)-2-pyrimidinamine, (Z)-2-butenedioate (1:1)], the IC50 (read-out: IC50) was found to be 1000 nM.

As for `CCN(CC)c1ccc(Nc2nccc(-c3cccnc3)n2)cc1` [N,N-Diethyl-N'-[4-(3-pyridinyl)-2-pyrimidinyl]-1,4-benzenediamine], where the note is “Homo sapiens, read-out: IC50”, the IC50 was 1700 nM.

For `Cc1cc(C)cc(Nc2nccc(-c3ccccn3)n2)c1` [N-(3,5-Dimethylphenyl)-4-(2-pyridinyl)-2-pyrimidinamine, phosphate], the IC50 (phosphate, read-out: IC50) is 300 nM.

For `Nc1cccc(Nc2nccc(-c3ccncc3)n2)c1` [N-[4-(4-Pyridinyl)-2-pyrimidinyl]-1,3-benzenediamine], the IC50 (Homo sapiens, read-out: IC50) worked out at 1000 nM.

As to `COc1cccc(Nc2nccc(-c3ccco3)n2)c1` [4-(2-Furanyl)-N-(3-methoxyphenyl)-2-pyrimidinamine], where the note is “Homo sapiens, read-out: IC50”, the IC50 turned out to be 300 nM.

For `CN(C)CCOc1ccc(N(CCN(C)C)c2nccc(-c3ccncc3)n2)cc1` [N-[4-[2-(Dimethylamino)ethoxy]phenyl]-N',N'-dimethyl-N-[4-(4-pyridinyl)-2-pyrimidinyl]-1,2-ethanediamine], the IC50 (Homo sapiens, read-out: IC50) came out at 9100 nM.

Take `Cc1cc(-c2ccc(C)s2)nc(Nc2ccccc2)n1` [4-Methyl-6-(5-methyl-2-thienyl)-N-phenyl-2-pyrimidinamine]: the IC50 (Homo sapiens, read-out: IC50) worked out at 24800 nM.

Turning to `CCc1ccc(Nc2nccc(-c3cc(C)oc3C)n2)cc1` [4-(2,5-Dimethyl-3-furanyl)-N-(4-ethylphenyl)-2-pyrimidinamine], for the setting “Homo sapiens, read-out: IC50”, the IC50 was determined as 19200 nM.

Turning to `c1cc(Nc2nccc(-c3cccs3)n2)cc(-n2ccnc2)c1` [N-[3-(1H-Imidazol-1-yl)phenyl]-4-(2-thienyl)-2-pyrimidinamine], the IC50 (Homo sapiens, read-out: IC50) is 200 nM.

In turn, `Cc1cnc(Nc2ccccc2)nc1-c1ccco1` [4-(2-Furanyl)-5-methyl-N-phenyl-2-pyrimidinamine, sulfate] yielded an IC50 (sulfate) of 5000 nM.

Regarding `c1cncc(-c2ccnc(Nc3ccc(-n4ccnc4)cc3)n2)c1` [N-[4-(1H-Imidazol-1-yl)phenyl]-4-(3-pyridinyl)-2-pyrimidinamine], the IC50 (Homo sapiens, read-out: IC50) is 1300 nM.

As to `CCc1cccc(Nc2nccc(-c3ccccn3)n2)c1` [N-(3-Ethylphenyl)-4-(2-pyridinyl)-2-pyrimidinamine], where the note is “Homo sapiens, read-out: IC50”, the IC50 was determined as 1400 nM.

On to `Nc1ccc(Nc2nccc(-c3ccccn3)n2)cc1` [N-[4-(2-Pyridinyl)-2-pyrimidinyl]-1,4-benzenediamine, dihydrochloride], for which the IC50 (Homo sapiens, read-out: IC50) was determined as 1000 nM.
